Assay results: ChEMBL document CHEMBL1156187, “Discovery of a selective small-molecule melanocortin-4 receptor agonist with efficacy in a pilot study of sexual dysfunction in humans” (J Med Chem, 2010)
pEC50, pKi: −log10 of the molar value.

Key:
Melanocortin receptor 4 [1] = biological target: T1, Melanocortin receptor 4 (Homo sapiens, UniProt P32245); test: Agonist activity at human recombinant MC4 receptor expressed in CHO cells by cAMP responsive beta lactamase reporter gene assay; assay type: functional, cell-based
Melanocortin receptor 3 [2] = biological target: T2, Melanocortin receptor 3 (Homo sapiens, UniProt P41968); test: Agonist activity at human recombinant MC3 receptor expressed in CHO cells assessed as cAMP accumulation by enzyme fragment complementation assay relative to […]; assay type: functional, cell-based
Melanocortin receptor 3 [3] = biological target: T2, Melanocortin receptor 3; test: Agonist activity at human recombinant MC3 receptor expressed in CHO cells assessed as cAMP accumulation by enzyme fragment complementation assay; assay type: functional, cell-based
[4] = biological target: T3, Melanocyte-stimulating hormone receptor (Homo sapiens, UniProt Q01726); test: Agonist activity at human recombinant MC1 receptor expressed in HEK293 cells assessed as cAMP accumulation by enzyme fragment complementation assay; assay type: functional, cell-based
Target sequence in this assay (Q01726 whole entry, the tested form may be a part): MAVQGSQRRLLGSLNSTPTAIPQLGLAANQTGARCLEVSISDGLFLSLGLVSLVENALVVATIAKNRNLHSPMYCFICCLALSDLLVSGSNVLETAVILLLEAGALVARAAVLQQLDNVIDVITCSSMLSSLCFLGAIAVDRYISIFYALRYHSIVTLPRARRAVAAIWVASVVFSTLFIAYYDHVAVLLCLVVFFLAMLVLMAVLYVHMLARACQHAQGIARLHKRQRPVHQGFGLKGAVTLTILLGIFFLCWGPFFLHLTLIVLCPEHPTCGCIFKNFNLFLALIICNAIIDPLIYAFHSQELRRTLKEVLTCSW

Melanocortin receptor 4 [5] = biological target: T1, Melanocortin receptor 4; test: Displacement of [125I]-MT-II from human recombinant MC4 receptor expressed in CHO cells by scintillation counting
[6] = biological target: T3, Melanocyte-stimulating hormone receptor; test: Agonist activity at human recombinant MC1 receptor expressed in HEK293 cells assessed as cAMP accumulation by enzyme fragment complementation assay relative to alpha melanocyte-stimulating hormone; assay type: functional, cell-based
Target sequence in this assay (Q01726 whole entry, looked up, the tested form may be a part): as the sequence (Q01726 whole entry, the tested form may be a part) above

[7] = Lipophilicity, log D at pH 7.4; assay type: physicochemical; settings: buffer
[8] = Intrinsic clearance in human liver microsome measured per mg of protein; assay type: ADME; settings: liver microsomes
Melanocortin receptor 5 [9] = biological target: T4, Melanocortin receptor 5 (Homo sapiens, UniProt P33032); test: Agonist activity at human recombinant MC5 receptor expressed in HEK293 cells assessed as cAMP accumulation by beta lactamase reporter gene assay; assay type: functional, cell-based
Melanocortin receptor 5 [10] = biological target: T4, Melanocortin receptor 5; test: Agonist activity at human recombinant MC5 receptor expressed in HEK293 cells assessed as cAMP accumulation by beta lactamase reporter gene assay relative to alpha melanocyte-stimulating hormone; assay type: functional, cell-based
[11] = biological target: Voltage-gated inwardly rectifying potassium channel KCNH2 (Homo sapiens, UniProt Q12809); test: Displacement of [3H]dofetilide from human ERG expressed in CHO cells by patch clamp method
Chain of Voltage-gated inwardly rectifying potassium channel KCNH2 (Q12809 whole entry): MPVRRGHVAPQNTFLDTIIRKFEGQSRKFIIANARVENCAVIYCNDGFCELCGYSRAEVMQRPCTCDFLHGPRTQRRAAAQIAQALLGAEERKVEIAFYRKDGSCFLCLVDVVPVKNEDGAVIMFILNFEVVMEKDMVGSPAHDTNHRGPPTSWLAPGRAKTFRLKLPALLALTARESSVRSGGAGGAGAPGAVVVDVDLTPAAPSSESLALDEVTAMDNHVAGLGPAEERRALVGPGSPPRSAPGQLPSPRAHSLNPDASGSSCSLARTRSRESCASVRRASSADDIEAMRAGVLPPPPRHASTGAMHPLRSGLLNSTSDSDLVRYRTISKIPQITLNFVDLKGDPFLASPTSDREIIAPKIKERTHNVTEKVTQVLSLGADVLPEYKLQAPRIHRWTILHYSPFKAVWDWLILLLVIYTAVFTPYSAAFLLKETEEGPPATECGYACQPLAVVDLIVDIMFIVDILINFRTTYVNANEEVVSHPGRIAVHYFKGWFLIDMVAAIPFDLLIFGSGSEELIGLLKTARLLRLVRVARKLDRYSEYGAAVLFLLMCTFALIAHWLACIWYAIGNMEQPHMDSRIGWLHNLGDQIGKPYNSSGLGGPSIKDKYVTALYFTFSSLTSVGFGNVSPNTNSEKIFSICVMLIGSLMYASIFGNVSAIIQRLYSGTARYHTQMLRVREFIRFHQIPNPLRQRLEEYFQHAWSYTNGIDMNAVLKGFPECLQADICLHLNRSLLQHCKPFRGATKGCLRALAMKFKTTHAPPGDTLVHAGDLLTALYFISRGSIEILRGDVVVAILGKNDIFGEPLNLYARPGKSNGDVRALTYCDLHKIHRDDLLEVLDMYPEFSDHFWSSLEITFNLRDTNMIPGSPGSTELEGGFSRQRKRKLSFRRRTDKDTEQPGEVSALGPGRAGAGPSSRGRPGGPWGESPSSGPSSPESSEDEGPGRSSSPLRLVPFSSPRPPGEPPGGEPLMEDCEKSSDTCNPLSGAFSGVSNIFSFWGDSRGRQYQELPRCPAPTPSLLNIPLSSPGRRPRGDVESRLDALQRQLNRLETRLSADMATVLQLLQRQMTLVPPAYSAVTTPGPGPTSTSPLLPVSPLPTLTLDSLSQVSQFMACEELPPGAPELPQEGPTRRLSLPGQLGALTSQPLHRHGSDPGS

T1 sequence (P32245 whole entry, the tested form may be a part): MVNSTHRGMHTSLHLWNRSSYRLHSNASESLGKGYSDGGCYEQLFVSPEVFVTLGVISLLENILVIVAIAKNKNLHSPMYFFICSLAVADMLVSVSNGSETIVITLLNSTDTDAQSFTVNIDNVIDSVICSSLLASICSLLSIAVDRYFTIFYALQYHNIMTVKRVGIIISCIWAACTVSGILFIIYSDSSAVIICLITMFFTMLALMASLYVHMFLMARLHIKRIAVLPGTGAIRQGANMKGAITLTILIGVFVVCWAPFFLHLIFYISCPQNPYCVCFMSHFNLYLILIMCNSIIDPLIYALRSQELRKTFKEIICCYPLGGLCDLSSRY
T4 sequence (P33032 whole entry): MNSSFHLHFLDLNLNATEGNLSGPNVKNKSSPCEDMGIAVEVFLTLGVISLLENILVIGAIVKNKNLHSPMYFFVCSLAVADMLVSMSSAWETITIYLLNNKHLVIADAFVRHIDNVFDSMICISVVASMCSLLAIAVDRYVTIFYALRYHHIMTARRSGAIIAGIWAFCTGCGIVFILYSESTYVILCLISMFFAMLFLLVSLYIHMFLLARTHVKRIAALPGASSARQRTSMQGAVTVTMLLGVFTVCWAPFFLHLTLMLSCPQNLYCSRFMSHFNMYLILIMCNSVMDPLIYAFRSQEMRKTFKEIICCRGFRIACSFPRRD
T2 sequence (P41968 whole entry, the tested form may be a part): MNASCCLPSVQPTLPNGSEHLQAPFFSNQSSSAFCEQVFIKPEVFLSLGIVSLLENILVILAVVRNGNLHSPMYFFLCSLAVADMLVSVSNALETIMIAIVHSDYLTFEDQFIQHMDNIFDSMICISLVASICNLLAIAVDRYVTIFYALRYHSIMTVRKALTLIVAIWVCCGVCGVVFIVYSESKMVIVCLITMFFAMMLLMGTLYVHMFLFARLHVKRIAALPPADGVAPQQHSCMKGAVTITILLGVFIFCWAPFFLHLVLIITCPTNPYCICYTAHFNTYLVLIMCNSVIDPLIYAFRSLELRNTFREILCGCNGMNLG

pEC50 (Melanocortin receptor 4 [1]) | Emax (Melanocortin receptor 3 [2]) [%] | pEC50 (Melanocortin receptor 3 [3]) | pEC50 [4] | pKi (Melanocortin receptor 4 [5]) | Emax [6] [%] | logD [7] | microsomal CLint [8] [µL/min/mg] | pEC50 (Melanocortin receptor 5 [9]) | Emax (Melanocortin receptor 5 [10]) [%] | Compound | pKi [11]
7.09 | 42 | 5.38 | < 4.78 | 6.76 | – | – | – | – | – | C[C@@H]1CN(C(=O)[C@H]2CN(c3cccnn3)C[C@@H]2c2ccc(F)cc2F)C[C@H](C)[C@@]1(O)C1CC1 | –
8.15 | 75 | 5.44 | 5.73 | 7.28 | 67 | 3 | > 440 | – | – | C[C@@H]1CN(C(=O)[C@H]2CN(c3cccnn3)C[C@@H]2c2ccc(F)cc2F)C[C@H](C)[C@@]1(O)c1ccccn1 | –
7.49 | 81 | 6.30 | 6.46 | 7.21 | 79 | – | – | – | – | C[C@@H]1CN(C(=O)[C@H]2CN(C3CCC3)C[C@@H]2c2ccc(F)cc2F)C[C@H](C)[C@@]1(O)c1ccccc1 | –
7.82 | 78 | 7.15 | < 4.78 | 7.10 | – | – | – | 6.02 | 29 | C[C@@H]1CN(C(=O)[C@H]2CN(c3ccccn3)C[C@@H]2c2ccc(F)cc2F)C[C@H](C)[C@@]1(O)c1ccccc1 | –
7.21 | – | 4.97 | 5.18 | 6.75 | 93 | – | – | – | 84 | C[C@@H]1CN(C(=O)[C@@H]2CN(C(C)(C)C)C[C@H]2c2ccc(F)cc2F)C[C@H](C)[C@@]1(O)c1ccc(F)cc1F | –
8.22 | 81 | 6.24 | < 5.19 | 7.01 | – | 3.3 | 52 | 5.74 | 74 | C[C@@H]1CN(C(=O)[C@@H]2CN(C(C)(C)C)C[C@H]2c2ccc(F)cc2F)C[C@H](C)[C@@]1(O)c1cccc(F)c1 | –
6.61 | – | < 4.57 | < 5.00 | 6.52 | – | – | – | < 4.95 | – | C[C@@H]1CN(C(=O)[C@H]2CN(c3ncccn3)C[C@@H]2c2ccc(F)cc2F)C[C@H](C)[C@@]1(O)c1ccccc1 | –
6.98 | – | < 5.24 | 5.96 | 6.63 | 72 | – | – | 5.84 | 72 | CCCCN1C[C@H](C(=O)N2C[C@@H](C)[C@](O)(c3ccccc3)[C@@H](C)C2)[C@@H](c2ccc(F)cc2F)C1 | –
6.90 | – | < 4.61 | 5.44 | 6.07 | 95 | – | – | – | – | CCC[C@@]1(O)[C@H](C)CN(C(=O)[C@@H]2CN(C(C)(C)C)C[C@H]2c2ccc(F)cc2F)C[C@@H]1C | –
8.40 | 75 | 6.22 | < 5.05 | 7.19 | – | – | – | < 4.85 | – | C[C@@H]1CN(C(=O)[C@H]2CN(c3ccncn3)C[C@@H]2c2ccc(F)cc2F)C[C@H](C)[C@@]1(O)c1ccccc1 | < 5.00
6.59 | – | – | – | – | – | 3.3 | 28 | – | – | CC(C)N1C[C@@H](C(=O)N2C[C@@H](C)[C@](O)(c3ccc(F)c(F)c3)[C@@H](C)C2)[C@H](c2ccc(F)cc2F)C1 | –
6.02 | – | – | – | – | – | 2.2 | 14 | – | – | C[C@@H]1CN(C(=O)[C@@H]2CN(C(C)(C)C)C[C@H]2c2ccc(F)cc2F)C[C@H](C)[C@@]1(O)C1CC1 | –
8.40 | – | – | – | – | – | 3.7 | 310 | – | – | C[C@@H]1CN(C(=O)[C@H]2CN(c3cccnn3)C[C@@H]2c2ccc(F)cc2F)C[C@H](C)[C@@]1(O)c1ccc(F)cc1 | –
7.68 | 79 | 5.13 | 5.41 | 7.25 | 104 | 2.8 | > 440 | – | – | CCC[C@@]1(O)[C@H](C)CN(C(=O)[C@H]2CN(c3cccnn3)C[C@@H]2c2ccc(F)cc2F)C[C@@H]1C | –
– | 87 | – | – | – | 98 | – | – | – | 61 | CCCC[C@H](NC(C)=O)C(=O)N[C@H]1CC(=O)NCCCC[C@@H](C(N)=O)NC(=O)[C@H](Cc2c[nH]c3ccccc23)NC(=O)[C@H](CCCNC(=N)N)NC(=O)C(Cc2ccccc2)NC(=O)[C@H](CC2=NC=NC2)NC1=O (single isomer, unassigned) | –
6.97 | – | – | – | – | – | 4.1 | < 7 | – | – | C[C@@H]1CN(C(=O)[C@@H]2CN(C(C)(C)C)C[C@H]2c2ccc(F)cc2F)C[C@H](C)[C@@]1(O)c1ccc(C(F)(F)F)cc1 | –
7.74 | – | < 4.84 | < 4.92 | 7.44 | – | 3.1 | 151 | < 4.70 | – | C[C@@H]1CN(C(=O)[C@H]2CN(C3CCOCC3)C[C@@H]2c2ccc(F)cc2F)C[C@H](C)[C@@]1(O)c1ccccc1 | < 5.28
6.14 | – | < 4.72 | < 5.11 | 5.97 | – | – | – | < 4.70 | – | C[C@@H]1CN(C(=O)[C@@H]2CN(C)C[C@H]2c2ccc(F)cc2F)C[C@H](C)[C@@]1(O)c1ccccc1 | –
8.30 | 90 | 7.19 | < 5.09 | 7.30 | – | – | – | – | – | C[C@@H]1CN(C(=O)[C@H]2CN(c3cccnc3)C[C@@H]2c2ccc(F)cc2F)C[C@H](C)[C@@]1(O)c1ccccc1 | 5.29
7.26 | – | < 4.48 | < 5.31 | 6.54 | – | > 4 | 342 | – | – | C[C@@H]1CN(C(=O)[C@H]2CN(C3CC3)C[C@@H]2c2ccc(F)cc2F)C[C@H](C)[C@@]1(O)c1ccccc1 | < 5.04
6.59 | – | – | – | – | – | 1.8 | 13 | – | – | C[C@@H]1CN(C(=O)[C@@H]2CNC[C@H]2c2ccc(F)cc2F)C[C@H](C)[C@@]1(O)c1ccc(F)cc1 | –
6.43 | – | – | – | – | – | 3.1 | 84 | – | – | COCCN1C[C@H](C(=O)N2C[C@@H](C)[C@](O)(c3ccccc3)[C@@H](C)C2)[C@@H](c2ccc(F)cc2F)C1 | –
7.82 | – | – | – | – | – | 3.5 | 22 | – | – | C[C@@H]1CN(C(=O)[C@@H]2CN(C(C)(C)C)C[C@H]2c2ccc(F)cc2F)C[C@H](C)[C@@]1(O)c1ccc(F)c(F)c1 | –
8.22 | 89 | 6.31 | < 5.51 | 8.00 | – | 3.3 | 243 | < 4.70 | – | C[C@@H]1CN(C(=O)[C@H]2CN(c3cccnn3)C[C@@H]2c2ccc(F)cc2F)C[C@H](C)[C@@]1(O)c1ccccc1 | –
6.44 | – | < 4.48 | < 5.21 | 6.46 | – | – | – | 4.82 | 100 | C[C@@H]1CN(C(=O)[C@@H]2CN(C)C[C@H]2c2ccc(F)cc2F)C[C@H](C)[C@@]1(O)c1ccc(F)cc1 | –
7.21 | – | < 4.87 | < 5.08 | 6.45 | – | 2.9 | 73 | 5.19 | 92 | CCN1C[C@@H](C(=O)N2C[C@@H](C)[C@](O)(c3cccc(F)c3)[C@@H](C)C2)[C@H](c2ccc(F)cc2F)C1 | –

Compound | pEC50 (Melanocortin receptor 4 [1]) | Emax (Melanocortin receptor 3 [2]) [%] | pEC50 (Melanocortin receptor 3 [3]) | pEC50 [4] | pKi (Melanocortin receptor 4 [5]) | Emax [6] [%] | logD [7] | microsomal CLint [8] [µL/min/mg] | pEC50 (Melanocortin receptor 5 [9]) | Emax (Melanocortin receptor 5 [10]) [%] | pKi [11]
C[C@@H]1CN(C(=O)[C@@H]2CNC[C@H]2c2ccc(F)cc2F)C[C@H](C)[C@@]1(O)c1ccccc1 | 6.34 | – | < 4.60 | < 5.06 | 6.58 | – | – | – | < 4.70 | – | 5.18
